Data published in PMC8216263 (Pharmaceutical Biology, 2021).
pIC50: −log10 of the molar value. Converted amounts (≈) assume the structure as drawn. Read-outs that look alike come from different tables or passages of the source.

Tests used:
[1] = Urinary excretion of GA and PCA after oral RLQ in healthy subjects; type: in vivo, human; settings: for fraction unbound / dose excreted: human, urine, oral, 8 g; for fraction unbound: urine within 24 h, read-out: Fu (fraction of administered dose excreted in the urine); for dose excreted: abstract summary, read-out: 24 h urine recovery rate
Procedure: In the single-dose study, 8 g of RLQ was administered orally on day 1. A 7-d washout time was designed between single-dose and multiple-dose pharmacokinetic studies. In the multiple-dose study, subjects received multiple doses of RLQ (8 g, t.i.d.) for seven consecutive days from day 8 to day 14 and a single dose of RLQ (8 g) on the morning of day 15. On days 1 and 15, blood samples (3 mL) were collected from the antecubital vein catheter before drug administration and at 0.08, 0.17, 0.33, 0.5, 0.75, 1, 1.5, 2, 3, 4, 6, 8, 12 and 24 h after dosing. Additional pre-dose samples were collected in the morning on days 12, 13 and 14. Urine samples were collected over a 12 h interval before dosing and at the following time intervals thereafter: 0–2, 2–5, 5–8, 8–12 and 12–24 h. All samples were stored at −80 °C until analysis.
All analytes were extracted from plasma and urine samples by simple protein precipitation extraction method using acetonitrile. Briefly, 5 µL of internal standard solution and 300 μL of acetonitrile were added to the spiked blank matrix (100 μL) and vortexed for 3 min and then centrifuged at 13,000 × g for 10 min. The supernatant was transferred and dried using a flow of nitrogen. The residue was re-dissolved in 100 µL of 10% methanol solution containing 0.1% formic acid. An aliquot of 5 µL solution was injected into the LC-MS/MS system for analysis.
The GA and PCA concentrations were determined using a validated LC-MS/MS method with some modifications (Ma et al. [2015]). The chromatographic separation was performed on an Acquity Ultra Performance LC instrument (Waters, Milford, MA) with a gradient programme in an ACQUITY UPLC BEH C18 column (2.1 mm × 100 mm, 1.7 μm). The gradient programme was performed with the mobile phase (0.3 mL/min) consisting of 0.1% formic acid aqueous solution (A) and acetonitrile (B) as follows: 97% A (0–8.5 min), 60% A (8.7–11 min), 10% A (11.5–13.5 min) and 97% A (14–15 min). The injection volume was 2 µL. The mass spectrometry analysis was performed on an AB Sciex Triple Quad 5500 MS (Framingham, MA) equipped with an ESI source. The quantitative analyses of GA, PCA and chloramphenicol were performed in a negative mode by multiple reaction monitoring (MRM) with the ion transitions of m/z 169.0→125.1, 153.1→109.0 and 321.1→152.1, respectively.
Pharmacokinetic parameters of GA and PCA were estimated with a non-compartmental method using Phoenix WinNonlin version 6.4 (Certara, Princeton, NJ). The peak plasma concentration (Cmax) and time to reach the peak plasma concentration (Tmax) were calculated from the actual plasma concentration data. The area under the plasma concentration-time curve from zero to the last measurable concentration (AUC0–t) was calculated via the linear trapezoidal rule. AUC0–∞ was calculated using the following formula: AUC0–∞ = AUC0–t + Ct/ke, where Ct is the last plasma concentration measured. The terminal elimination half-life (t1/2) was calculated as 0.693/ke, and the total clearance (CL/F) was calculated as dose/AUC0–∞. The accumulation index was calculated as AUCss/AUC0–t.

[2] = target: T1, OAT1 (Homo sapiens, UniProt Q4U2R8); assay: Inhibition of OAT1-mediated 14C-PAH uptake in MDCK-OAT1 cells; type: cell-based
T1 construct: host or cells: MDCK
T1 sequence (Q4U2R8 1-563): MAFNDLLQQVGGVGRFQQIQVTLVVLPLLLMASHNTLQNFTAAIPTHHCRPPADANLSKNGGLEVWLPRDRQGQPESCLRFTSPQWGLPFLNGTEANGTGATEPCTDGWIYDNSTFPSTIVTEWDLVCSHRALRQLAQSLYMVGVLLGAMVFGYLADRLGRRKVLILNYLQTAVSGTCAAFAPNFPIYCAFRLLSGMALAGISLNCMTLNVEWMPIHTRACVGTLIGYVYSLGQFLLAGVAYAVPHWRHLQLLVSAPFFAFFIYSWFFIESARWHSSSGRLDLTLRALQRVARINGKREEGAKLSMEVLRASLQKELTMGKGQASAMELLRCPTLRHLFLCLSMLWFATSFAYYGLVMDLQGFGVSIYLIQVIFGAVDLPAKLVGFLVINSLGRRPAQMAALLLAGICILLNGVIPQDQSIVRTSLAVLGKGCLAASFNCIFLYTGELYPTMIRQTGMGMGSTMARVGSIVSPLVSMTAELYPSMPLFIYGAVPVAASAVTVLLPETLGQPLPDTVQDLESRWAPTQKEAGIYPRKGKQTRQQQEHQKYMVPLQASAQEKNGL
Procedure: Cells were cultured in DMEM supplemented with 10% FBS, 100 units/mL penicillin and 100 units/mL streptomycin. […] Cell culture flasks, 24-well cell culture plates, and transwell polycarbonate inserts (12 mm diameter, 0.4 μm pore size) were purchased from Corning Co-star Corp. (Bedford, MA).
The MDCK-OAT1, S2-OAT3, S2-OCT2 and HEK293-OATP1B1 cell lines were utilized in this study. […] Briefly, S2-OAT3, S2-OCT2 and S2-mock cells were trypsinized and uniformly suspended in the culture medium’s designated volume to provide a density of 2.0 × 10^5 cells/mL. A 1.0-mL aliquot of the cell suspension was added into each well of 24-well insert plates. HEK293-OATP1B1, MDCK-OAT1 and their mock cells were seeded in 24-well plates at a density of 1.5 × 10^5 cells/well. […] Three washes terminated the experiment with ice-cold DPBS buffer after removing the incubation buffer. Cells were lysed with 400 μL of […] sodium hydroxide solution. The cell lysate and 3.0 mL of aquasol-2 scintillation fluid were put into a scintillation flask. […] The final concentration of DMSO in the assay was less than 0.1%. All experiments were performed in triplicate.

[3] = estimated, 14C-PAH 5 µM, MDCK-OAT1 cells

O=C(O)c1cc(O)c(O)c(O)c1 [GA, gallic acid]
fraction unbound ([1]; multiple dose RLQ 8 g): 0.107 | fraction unbound ([1]; single dose RLQ 8 g): ~0.086 | dose excreted [1]: ~10% | amount recovered in urine within 24 h ([1]; single dose RLQ 8 g): 2.48 ± 1.34 mg | pIC50 [2, 3]: 5.43 | IC50 (OAT1) [2, 3]: 0.6341 µg/mL (≈ 3.73 µM)

O=C(O)c1ccc(O)c(O)c1 [PCA, protocatechuic acid]
mean urinary concentration ([1]; first 2 h after administration of RLQ 8 g): ~150 µg/L | fraction unbound ([1]; single dose RLQ 8 g): ~0.042 | dose excreted [1]: ~5% | amount recovered in urine within 24 h ([1]; single dose RLQ 8 g): 0.046 ± 0.040 mg | inhibitory effect on OAT1 ([2]; GA 50–5000 μg/L, PCA 10–1000 μg/L): no significant inhibitory effect
